Reference: PMC11111408, “Concurrent inhibition of oncogenic and wild-type RAS-GTP for cancer therapy” (Nature, 2024)

Experiments:
CYPA = molecular target: T1, CYPA (Homo sapiens, UniProt P62937); experiment: CYPA binding affinity (Kd1), SPR; details: steady state, (95% CI)
T1 construct: His6-TEV-AviTag-CYPA (full-length); His6-TEV (N); made in house; host or cells: BL21(DE3) Escherichia coli
Protocol: The binding affinity of compounds for CYPA (Kd1) was assessed by SPR on a Biacore 8K instrument as previously described.

NRAS^Q61R = NRAS^Q61R (Homo sapiens, UniProt P01111+P62937, Q61R); experiment: RAS binding affinity of compound-bound CYPA (Kd2), SPR; details: steady state SPR, (95% CI)
HRAS WT = HRAS WT (Homo sapiens, UniProt P01112+P62937); experiment: as above; details: steady state SPR, (95% CI)
KRAS^G13C [1] = molecular target: T2, KRAS^G13C (Homo sapiens, UniProt P01116+P62937, G13C); experiment: Biochemical RAS–RAF (BRAF RBD) disruption, TR-FRET
Source text: (§1) Time-resolved fluorescence resonance energy transfer (TR-FRET) was used as previously described to assess disruption of the interactions between wild-type RAS or the mutant oncogenic RAS proteins and the RAS-binding domain of BRAF, and to assess the induction of interactions between the RAS proteins and CYPA[12].

KRAS^G13D = KRAS^G13D (Homo sapiens, UniProt P01116+P62937, G13D); experiment: Biochemical RAS–RAF (BRAF RBD) disruption, TR-FRET
Source text: as §1

KRAS^Q61H [2] = molecular target: T3, KRAS^Q61H (Homo sapiens, UniProt P01116+P62937, Q61H); experiment: Biochemical RAS–RAF (BRAF RBD) disruption, TR-FRET
Source text: as §1

NRAS^Q61K = NRAS^Q61K (Homo sapiens, UniProt P01111+P62937, Q61K); experiment: Biochemical RAS–RAF (BRAF RBD) disruption, TR-FRET
Source text: as §1

NRAS^Q61L = NRAS^Q61L (Homo sapiens, UniProt P01111+P62937, Q61L); experiment: Biochemical RAS–RAF (BRAF RBD) disruption, TR-FRET; details: (95% CI)
Source text: as §1

Capan-1 cells = experiment: Cell proliferation (CTG); format: cell-based; details: Homo sapiens; Capan-1, CTG; (95% CI)
Protocol: Alternatively, cells were seeded in round-bottom ultra-low attachment 96-well plates, centrifuged at 1,000 rpm for 10 min to pellet the cells, and incubated overnight or up to 72 h to allow for 3D spheroid formation. […] Cell viability was determined by CellTiter-Glo 2.0 reagent (2D CTG) (Promega, G9243) or 3D CellTiter-Glo reagent (3D CTG) (Promega, G9683) according to the manufacturer’s protocols. Luminescence was detected using a SpectraMax M5 Plate Reader (Molecular Devices) of Perkin Elmer Enspire. Luminescence signal was normalized to vehicle-treated wells (normalized signal (%) = (luminescence (treated)/mean luminescence (vehicle)) × 100%). […] Data were plotted as log [inhibitor (M)], and a four-parameter sigmoidal concentration response model was fitted to the data to calculate EC50. […] Pa16C MEK1 mutant cells were evaluated by live-cell counting using Calcein AM and a SpectraMax i3X multi-mode detection platform (Molecular Devices). Growth percentages were calculated by normalizing the treated cell counts to their respective untreated cell counts.

GDP-bound KRAS(G12C) = molecular target: T4, GDP-bound KRAS(G12C) (Homo sapiens, UniProt P01116, G12C); experiment: SPR binding of RMC-7977–CYPA binary complex to GDP-bound KRAS; details: in vitro
T4 construct: His6-TEV (N); made in house; host or cells: E. coli BL21(DE3)

[3] = tested on: KRAS(G12C)-mutated PDX model from a NSCLC patient relapsed on sotorasib; experiment: Sotorasib resistance xenograft study (KRAS^G12C NSCLC PDX); format: in vivo, mouse; details: 10 mg kg^−1 daily oral, day 17 of treatment
KRAS WT = KRAS WT (Homo sapiens, UniProt P01116+P62937); experiment: Cellular RAS–RAF (CRAF RBD) disruption, nano-BRET in U2OS cells; format: cell-based; parameters: expressed in transfected cells; host or cells: U2OS; details: (95% CI)
Source text: (§2) KRAS4B, or other small GTPases, containing the indicated mutations were cloned in pNLF-N or pHTN plasmids for expression with an N-terminal nanoluciferase or HaloTag fusion, respectively. […] The following day, the cells were collected by Trypsin and reseeded in a white tissue culture-treated 96-well plate in OptiMem phenol red-free medium (Gibco) containing 4% FBS and a 1:1,000 dilution of NanoBRET 618 HaloTag ligand (Promega). For endpoint concentration response curves, vivazine nanoluciferase substrate was added to 1× concentration in OptiMem phenol red-free medium with 4% FBS. Varying concentrations of inhibitor were added and incubated for 1 or 4 h before the nano-BRET signal was measured on a Perkin Elmer Envision plate reader. For kinetic assays, endurazine nanoluciferase substrate was used in place of vivazine, and the plate was placed in a Cytation5 multi-mode reader pre-equilibrated to 37 °C and 5% CO2.

KRAS^G12C = KRAS^G12C (Homo sapiens, UniProt P01116+P62937, G12C); experiment: as above; format: cell-based; parameters: expressed in transfected cells; host or cells: U2OS; details: (95% CI)
Source text: as §2

KRAS^G12D = KRAS^G12D (Homo sapiens, UniProt P01116+P62937, G12D); experiment: as above; format: cell-based; parameters: expressed in transfected cells; host or cells: U2OS; details: (95% CI)
Source text: as §2

KRAS^G12R = KRAS^G12R (Homo sapiens, UniProt P01116+P62937, G12R); experiment: as above; format: cell-based; parameters: expressed in transfected cells; host or cells: U2OS; details: (95% CI)
Source text: as §2

KRAS^G13C [4] = molecular target: T2, KRAS^G13C; experiment: as above; format: cell-based; parameters: expressed in transfected cells; host or cells: U2OS; details: (95% CI)
Source text: as §2

KRAS^G12A = KRAS^G12A (Homo sapiens, UniProt P01116+P62937, G12A); experiment: as above; format: cell-based; parameters: expressed in transfected cells; host or cells: U2OS or U2OS PPIA-KO; details: (95% CI)
Source text: as §2

KRAS^Q61H [5] = molecular target: T3, KRAS^Q61H; experiment: as above; format: cell-based; parameters: expressed in transfected cells; host or cells: U2OS or U2OS PPIA-KO; details: (95% CI)
Source text: as §2

KRAS^G12V = KRAS^G12V (Homo sapiens, UniProt P01116+P62937, G12V); experiment: Biochemical RAS–RAF (BRAF RBD) disruption, TR-FRET; parameters: His6-TEV (N); made in house; host or cells: BL21(DE3) Escherichia coli
Source text: as §1

CCn1c(-c2cc(N3CCN(C4CC4)CC3)cnc2[C@H](C)OC)c2c3cc(ccc31)-c1csc(n1)C[C@H](NC(=O)[C@H]1[C@@H]3COC[C@@H]31)C(=O)N1CCC[C@H](N1)C(=O)OCC(C)(C)C2 [RMC-7977]
Kd (CYPA): 195 nM
Kd (NRAS^Q61R): 239 nM
Kd (HRAS WT): 94.7 nM
EC50 (KRAS^G13C [1]): 49.7 nM
EC50 (KRAS^G13D): 142 nM
EC50 (KRAS^Q61H [2]): 47.7 nM
EC50 (NRAS^Q61K): 53.9 nM
EC50 (NRAS^Q61L): 145 nM
EC50 (Capan-1 cells): 2.2 nM
binding of RMC-7977–CYPA binary complex to GDP-bound KRAS(G12C) (GDP-bound KRAS(G12C)): No binding was observed
inhibition of tumour growth [3]: 90%
EC50 (KRAS WT): 34.5 nM
EC50 (KRAS^G12C): 5.06 nM
EC50 (KRAS^G12D): 9.5 nM
EC50 (KRAS^G12R): 21.2 nM
EC50 (KRAS^G13C [4]): 17.2 nM
EC50 (KRAS^G12A): 30.3 nM
EC50 (KRAS^Q61H [5]): 17.2 nM
EC50 (KRAS^G12V): 44 nM
